Test results: US10376520B2, “Methods for the treatment of cardiovascular disorders” (Galapagos NV, priority 2015, dated 2019)

System: RA patients
Assay: Total cholesterol determination, Study 1 (RA patients with inadequate response to methotrexate, add-on to MTX)
Assay type: in vivo, human
Description: Double-blind, placebo-controlled add on study in subjects with moderately to severely active RA who have an inadequate response to methotrexate (MTX) (oral or parenteral).
595 subjects randomized to one of 6 dose regimens of Compound 1 (dosed as a [Compound 1:HCl:3H2O]) (3 dose levels administered either once or twice daily) or placebo on top of each subject's stable dose of MTX.
Compound 1 (dosed as a [Compound 1:HCl:3H2O]) is dosed for twelve weeks once daily (q.d.) (50 mg, 100 mg or 200 mg) or twice daily (b.i.d.) (25 mg, 50 mg or 100 mg); or placebo.
At Week 12, the subjects on placebo who have not achieved 20% improvement in swollen joint count (SJC66) and tender joint count (TJC68) are re-randomized automatically to receive Compound 1 (dosed as a [Compound 1:HCl:3H2O]) either at 100 mg q.d. or 50 mg b.i.d. doses in a blinded fashion; subjects on 50 mg q.d. who have not achieved 20% improvement in SJC66 and TJC68 will be assigned to 100 mg q.d. and subjects on 25 mg b.i.d. that have not achieved a 20% improvement in SJC66 and TJC68 will be assigned to 50 mg b.i.d. Subjects who switch treatment at week 12 are handled as if they discontinued at week 12 for the purpose of statistical analysis, whereas subjects in the other groups will maintain their randomized treatment until Week 24.
This method is based on the determination of Δ^4 cholestenone after enzymatic cleavage of the cholesterol ester by cholesterol esterase, conversion of cholesterol by cholesterol oxidase, and subsequent measurement by the Trinder reaction of the hydrogen peroxide formed (Allain et al., 1974).
Cholesterol esters are cleaved by the action of cholesterol esterase to yield free cholesterol and fatty acids. Cholesterol oxidase then catalyzes the oxidation of cholesterol to cholest-4-en-3-one and hydrogen peroxide. In the presence of peroxidase, the hydrogen peroxide formed effects the oxidative coupling of phenol and 4-aminophenazone to form a red quinone-imine dye. The color intensity of the dye formed is directly proportional to the cholesterol concentration. It is determined by measuring the increase in absorbance.
Human serum and plasma samples cholesterol determination was done on a Roche/Hitachi Cobas c 701/702 system which automatically calculate the analyte concentration of each sample.

SMILES: O=C(Nc1nc2cccc(-c3ccc(CN4CCS(=O)(=O)CC4)cc3)n2n1)C1CC1 [Compound 1, cyclopropanecarboxylic acid {5-[4-(1,1-dioxo-thiomorpholin-4-ylmethyl)-phenyl]-[1,2,4]triazolo[1,5-a]pyridin-2yl}-amide]
- [total cholesterol] Mean percentage CFB - 24 weeks results (continued 25 mg b.i.d (N = 69), week 12): 6.38%
- [total cholesterol] Mean percentage CFB - 24 weeks results (continued 25 mg b.i.d (N = 69), week 16): 5.51%
- [total cholesterol] Mean percentage CFB - 24 weeks results (continued 25 mg b.i.d (N = 69), week 20): 6.95%
- [total cholesterol] Mean percentage CFB - 24 weeks results (continued 25 mg b.i.d (N = 69), week 24): 6.53%
- [total cholesterol] Mean percentage CFB - 24 weeks results (continued 50 mg b.i.d. (N = 85), week 1): 3.39%
- [total cholesterol] Mean percentage CFB - 24 weeks results (continued 50 mg b.i.d. (N = 85), week 2): 3.87%
- [total cholesterol] Mean percentage CFB - 24 weeks results (continued 50 mg b.i.d. (N = 85), week 4): 7.04%
- [total cholesterol] Mean percentage CFB - 24 weeks results (continued 50 mg b.i.d. (N = 85), week 8): 5.63%
- [total cholesterol] Mean percentage CFB - 24 weeks results (continued 50 mg b.i.d. (N = 85), week 12): 5.67%
- [total cholesterol] Mean percentage CFB - 24 weeks results (continued 50 mg b.i.d. (N = 85), week 16): 6.23%
- [total cholesterol] Mean percentage CFB - 24 weeks results (continued 50 mg b.i.d. (N = 85), week 20): 7.91%
- [total cholesterol] Mean percentage CFB - 24 weeks results (continued 50 mg b.i.d. (N = 85), week 24): 7.97%
- [total cholesterol] Mean percentage CFB - 24 weeks results (continued 50 mg q.d. (N = 63), week 1): 0.77%
- [total cholesterol] Mean percentage CFB - 24 weeks results (continued 50 mg q.d. (N = 63), week 2): −0.22%
- [total cholesterol] Mean percentage CFB - 24 weeks results (continued 50 mg q.d. (N = 63), week 4): 1.08%
- [total cholesterol] Mean percentage CFB - 24 weeks results (continued 50 mg q.d. (N = 63), week 8): 3.49%
- [total cholesterol] Mean percentage CFB - 24 weeks results (continued 50 mg q.d. (N = 63), week 12): 5.58%
- [total cholesterol] Mean percentage CFB - 24 weeks results (continued 50 mg q.d. (N = 63), week 16): 5.15%
- [total cholesterol] Mean percentage CFB - 24 weeks results (continued 50 mg q.d. (N = 63), week 20): 4.68%
- [total cholesterol] Mean percentage CFB - 24 weeks results (continued 50 mg q.d. (N = 63), week 24): 6.75%
- [total cholesterol] Mean percentage CFB - 24 weeks results (continued 100 mg b.i.d. (N = 84), week 1): 6.85%
- [total cholesterol] Mean percentage CFB - 24 weeks results (continued 100 mg b.i.d. (N = 84), week 2): 8.38%
- [total cholesterol] Mean percentage CFB - 24 weeks results (continued 100 mg b.i.d. (N = 84), week 4): 9.86%
- [total cholesterol] Mean percentage CFB - 24 weeks results (continued 100 mg b.i.d. (N = 84), week 8): 14.79%
- [total cholesterol] Mean percentage CFB - 24 weeks results (continued 100 mg b.i.d. (N = 84), week 12): 14.98%
- [total cholesterol] Mean percentage CFB - 24 weeks results (continued 100 mg b.i.d. (N = 84), week 16): 12.82%
- [total cholesterol] Mean percentage CFB - 24 weeks results (continued 100 mg b.i.d. (N = 84), week 20): 12.71%
- [total cholesterol] Mean percentage CFB - 24 weeks results (continued 100 mg b.i.d. (N = 84), week 24): 15.39%
- [total cholesterol] Mean percentage CFB - 24 weeks results (continued 100 mg q.d. (N = 85), week 1): 3.65%
- [total cholesterol] Mean percentage CFB - 24 weeks results (continued 100 mg q.d. (N = 85), week 2): 2.32%
- [total cholesterol] Mean percentage CFB - 24 weeks results (continued 100 mg q.d. (N = 85), week 4): 4.86%
- [total cholesterol] Mean percentage CFB - 24 weeks results (continued 100 mg q.d. (N = 85), week 8): 3.79%
- [total cholesterol] Mean percentage CFB - 24 weeks results (continued 100 mg q.d. (N = 85), week 12): 5.39%
- [total cholesterol] Mean percentage CFB - 24 weeks results (continued 100 mg q.d. (N = 85), week 16): 1.87%
- [total cholesterol] Mean percentage CFB - 24 weeks results (continued 100 mg q.d. (N = 85), week 20): 3.28%
- [total cholesterol] Mean percentage CFB - 24 weeks results (continued 100 mg q.d. (N = 85), week 24): 5.05%
- [total cholesterol] Mean percentage CFB - 24 weeks results (continued 200 mg q.d. (N = 86), week 1): 5.53%
- [total cholesterol] Mean percentage CFB - 24 weeks results (continued 200 mg q.d. (N = 86), week 2): 9.86%
- [total cholesterol] Mean percentage CFB - 24 weeks results (continued 200 mg q.d. (N = 86), week 4): 8.99%
- [total cholesterol] Mean percentage CFB - 24 weeks results (continued 200 mg q.d. (N = 86), week 8): 6.72%
- [total cholesterol] Mean percentage CFB - 24 weeks results (continued 200 mg q.d. (N = 86), week 12): 10.16%
- [total cholesterol] Mean percentage CFB - 24 weeks results (continued 200 mg q.d. (N = 86), week 16): 9.19%
- [total cholesterol] Mean percentage CFB - 24 weeks results (continued 200 mg q.d. (N = 86), week 20): 8.00%
- [total cholesterol] Mean percentage CFB - 24 weeks results (continued 200 mg q.d. (N = 86), week 24): 9.94%
- [total cholesterol] Mean percentage CFB - 24 weeks results (from 25 mg b.i.d. to 50 mg b.i.d at 12 weeks (N = 17), week 1): 0.55%
- [total cholesterol] Mean percentage CFB - 24 weeks results (from 25 mg b.i.d. to 50 mg b.i.d at 12 weeks (N = 17), week 2): 2.37%
- [total cholesterol] Mean percentage CFB - 24 weeks results (from 25 mg b.i.d. to 50 mg b.i.d at 12 weeks (N = 17), week 4): −2.60%
- [total cholesterol] Mean percentage CFB - 24 weeks results (from 25 mg b.i.d. to 50 mg b.i.d at 12 weeks (N = 17), week 8): −2.81%
- [total cholesterol] Mean percentage CFB - 24 weeks results (from 25 mg b.i.d. to 50 mg b.i.d at 12 weeks (N = 17), week 12): 0.30%
- [total cholesterol] Mean percentage CFB - 24 weeks results (from 25 mg b.i.d. to 50 mg b.i.d at 12 weeks (N = 17), week 16): 4.23%
- [total cholesterol] Mean percentage CFB - 24 weeks results (from 25 mg b.i.d. to 50 mg b.i.d at 12 weeks (N = 17), week 24): 2.66%
- [total cholesterol] Mean percentage CFB - 24 weeks results (from 50 mg q.d. to 100 mg q.d. at 12 weeks (N = 19), week 1): 1.24%
- [total cholesterol] Mean percentage CFB - 24 weeks results (from 50 mg q.d. to 100 mg q.d. at 12 weeks (N = 19), week 2): 4.36%
- [total cholesterol] Mean percentage CFB - 24 weeks results (from 50 mg q.d. to 100 mg q.d. at 12 weeks (N = 19), week 4): 1.67%
- [total cholesterol] Mean percentage CFB - 24 weeks results (from 50 mg q.d. to 100 mg q.d. at 12 weeks (N = 19), week 8): 2.29%
- [total cholesterol] Mean percentage CFB - 24 weeks results (from 50 mg q.d. to 100 mg q.d. at 12 weeks (N = 19), week 12): 2.39%
- [total cholesterol] Mean percentage CFB - 24 weeks results (from 50 mg q.d. to 100 mg q.d. at 12 weeks (N = 19), week 16): 7.55%
- [total cholesterol] Mean percentage CFB - 24 weeks results (from 50 mg q.d. to 100 mg q.d. at 12 weeks (N = 19), week 20): 6.69%
- [total cholesterol] Mean percentage CFB - 24 weeks results (from 50 mg q.d. to 100 mg q.d. at 12 weeks (N = 19), week 24): 5.15%
- [total cholesterol] Mean percentage CFB - 24 weeks results (placebo switched to 50 mg b.i.d at week 12 (N = 15), week 16): 3.97%
- [total cholesterol] Mean percentage CFB - 24 weeks results (placebo switched to 50 mg b.i.d at week 12 (N = 15), week 20): 5.80%
- [total cholesterol] Mean percentage CFB - 24 weeks results (placebo switched to 50 mg b.i.d at week 12 (N = 15), week 24): 3.22%
